Measured values as given in the NIST ThermoML archive (doi:10.1021/je400471m).
± gives the expanded uncertainty stated by the source.

Tests used:
[1] = refractive index (Na D-line) (dimensionless); wn = mass fraction of the nth substance listed; settings: 338.15 K, 98 kPa, Liquid, Standard Abbe refractometry
[2] = refractive index (Na D-line) (dimensionless); settings: 338.15 K; 98 kPa; Liquid; Standard Abbe refractometry

O=C(CO)[C@@H](O)[C@H](O)[C@H](O)CO [D-fructose] + O
refractive index ([1]; w1 = 0.2189): 1.3687 ± 0.0096 | refractive index ([1]; w1 = 0.3592): 1.3945 ± 0.0096 | refractive index ([1]; w1 = 0.4567): 1.4159 ± 0.0096 | refractive index ([1]; w1 = 0.5286): 1.4339 ± 0.0096 | refractive index ([1]; w1 = 0.5759): 1.4393 ± 0.0096 | refractive index ([1]; w1 = 0.579): 1.4413 ± 0.0096 | refractive index ([1]; w1 = 0.5836): 1.4428 ± 0.0096

CCO [ethanol] + O
refractive index ([1]; w1 = 0.2): 1.3363 ± 0.0096 | refractive index ([1]; w1 = 0.4): 1.3415 ± 0.0096 | refractive index ([1]; w1 = 0.6): 1.3569 ± 0.0096 | refractive index ([1]; w1 = 0.9): 1.3587 ± 0.0096

O [water]
refractive index [2]: 1.323 ± 0.0096
